In US20260042764A1, “COMPOSITIONS AND METHODS FOR INHIBITION OF KRAS” (TheRas, Inc., priority 2022, published 2026):

Assays:
GP2d cells (KRAS G12D) = test: Cell-based pERK HTRF assay in GP2d cell (Biological Example 2); conditions: GP2d (KRAS G12D) cells, pERK HTRF
Method in brief: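 Phospho-ERK in lysed cells was detected by HTRF using Eu cryptate and d2 antibodies, read between 4 and 24 h at room temperature. Prior to lysis, KRAS G12D GP2d cells, seeded the day before in DMEM with 10% FBS, were exposed to compounds for 60 min. Compounds were tested as 9-point half-log curves from 1 μM or 100 nM top, with 0.25% DMSO.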

[1] = molecular target: T1, Avi-KRAS G12R (1-169) GppNHp/RAF1 RBD-3xFLAG (52-151) (Homo sapiens, UniProt P01116, G12R); test: Raf1-KRAS G12R-GppNHP disruption HTRF assay (Biological Example 1); assay type: binding
T1 construct: Avi-KRAS G12R (1-169)
Method in brief: (§1)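 Using HTRF, the loss of KRAS–effector RAF1 complex was quantified in 50 mM Tris pH 7.5 buffer with 100 mM NaCl and 0.1% BSA. The protein step and reagent step ran 1 h each at room temperature. Activity normalized with DMSO taken as 100%.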

SW620 cells (KRAS G12V) = test: Cell-based pERK HTRF assay in SW620 cell (Biological Example 4); conditions: pERK HTRF
Method in brief: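 Read-out: HTRF pERK signal (excitation 320 nm, emission 615 nm) from lysates of SW620 cells after 4 h compound exposure. Dose range was 9 points, half-log steps from 1 μM, in 0.25% DMSO; antibody incubation ran 4–24 h at room temperature.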

[2] = molecular target: T2, Avi-KRAS WT (1-169) GppNHp/RAF1 RBD-3xFLAG (52-151) (Homo sapiens, UniProt P01116); test: Raf1-KRAS WT-GppNHP disruption HTRF assay (Biological Example 1); assay type: binding
T2 construct: Avi-KRAS WT (1-169)
Method in brief: as §1

[3] = molecular target: T3, Avi-KRAS G12V (1-169) GppNHp/RAF1 RBD-3xFLAG (52-151) (Homo sapiens, UniProt P01116, G12V); test: Raf1-KRAS G12V-GppNHP disruption HTRF assay (Biological Example 1); assay type: binding
T3 construct: Avi-KRAS G12V (1-169)
Method in brief: as §1

[4] = molecular target: T4, Avi-KRAS G12D (1-169) GppNHp/RAF1 RBD-3xFLAG (52-151) (Homo sapiens, UniProt P01116, G12D); test: Raf1-KRAS G12D-GppNHP disruption HTRF assay (Biological Example 1); assay type: binding
T4 construct: Avi-KRAS G12D (1-169)
Method in brief: as §1

[5] = KRAS G12R, GppNHp-loaded, Table 11
[6] = KRAS WT, GppNHp-loaded, Table 11
[7] = KRAS G12V, GppNHp-loaded, Table 11
[8] = KRAS G12D, GppNHp-loaded, Table 11
[9] = KRAS G12R, GppNHp-loaded, class symbols
[10] = Homo sapiens, SW-620, SW620 (KRAS G12V) cells, class symbols
[11] = KRAS WT, GppNHp-loaded, class symbols
[12] = KRAS G12V, GppNHp-loaded, class symbols
[13] = KRAS G12D, GppNHp-loaded, class symbols
[14] = Homo sapiens, SW-620, SW620 (KRAS G12V) cells

T3 sequence (P01116 1-169 isoform P01116-2 G12V): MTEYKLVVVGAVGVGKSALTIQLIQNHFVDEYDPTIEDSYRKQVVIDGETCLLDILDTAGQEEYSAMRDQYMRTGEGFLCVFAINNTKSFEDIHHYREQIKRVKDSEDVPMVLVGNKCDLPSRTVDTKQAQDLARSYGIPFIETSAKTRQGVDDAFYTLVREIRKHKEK
T2 sequence (P01116 1-169 isoform P01116-2): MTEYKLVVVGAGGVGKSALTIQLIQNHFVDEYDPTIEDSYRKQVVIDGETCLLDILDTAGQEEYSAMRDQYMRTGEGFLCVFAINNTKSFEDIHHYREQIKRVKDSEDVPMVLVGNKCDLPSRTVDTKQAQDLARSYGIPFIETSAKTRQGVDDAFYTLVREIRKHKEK
T1 sequence (P01116 1-169 isoform P01116-2 G12R): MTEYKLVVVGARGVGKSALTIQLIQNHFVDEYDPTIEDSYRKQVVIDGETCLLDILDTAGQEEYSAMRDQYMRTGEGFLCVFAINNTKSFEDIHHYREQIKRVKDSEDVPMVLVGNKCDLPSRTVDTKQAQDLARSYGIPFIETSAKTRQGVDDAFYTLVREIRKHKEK
T4 sequence (P01116 1-169 isoform P01116-2 G12D): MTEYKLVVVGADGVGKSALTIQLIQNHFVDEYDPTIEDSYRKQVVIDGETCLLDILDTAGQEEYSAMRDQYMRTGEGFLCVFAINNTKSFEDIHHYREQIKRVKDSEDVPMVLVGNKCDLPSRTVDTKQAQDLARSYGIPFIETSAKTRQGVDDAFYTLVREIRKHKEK

Row | IC50 (GP2d cells (KRAS G12D); GP2d) [nM] | IC50 ([1]; KRAS G12R-GppNHp/RAF1 RBD HTRF) [nM] | IC50 (SW620 cells (KRAS G12V); [14]) [nM] | IC50 ([2]; KRAS WT-GppNHp/RAF1 RBD HTRF) [nM] | IC50 ([3]; KRAS G12V-GppNHp/RAF1 RBD HTRF) [nM] | IC50 ([4]; KRAS G12D-GppNHp/RAF1 RBD HTRF) [nM] | Compound | also measured
1 | < 100 | 100 to 1000 | < 100 | 100 to 1000 | 100 to 1000 | 100 to 1000 | C[C@@H]1[C@H](N(C)c2nc(OC[C@@]34CCCN3C[C@H](F)C4)nc3c(F)c(-c4ccc(F)c5sc(N)c(C#N)c45)c(C(F)(F)F)cc23)CCN1C(=O)C1(C#N)CC1 [Compound 325] | –
2 | < 100 | 100 to 1000 | < 100 | 100 to 1000 | 100 to 1000 | 100 to 1000 | CNC(=O)N1CC[C@@H](N(C)c2nc(OC[C@@]34CCCN3C[C@H](F)C4)nc3c(F)c(-c4ccc(F)c5sc(N)c(C#N)c45)c(C(F)(F)F)cc23)[C@H]1C [Compound 427] | –

The next lines start with the compound.

Row | Compound | IC50 (GP2d cells (KRAS G12D); GP2d) [nM] | IC50 ([1]; KRAS G12R-GppNHp/RAF1 RBD HTRF) [nM] | IC50 (SW620 cells (KRAS G12V); [14]) [nM] | IC50 ([2]; KRAS WT-GppNHp/RAF1 RBD HTRF) [nM] | IC50 ([3]; KRAS G12V-GppNHp/RAF1 RBD HTRF) [nM] | IC50 ([4]; KRAS G12D-GppNHp/RAF1 RBD HTRF) [nM] | also measured
3 | CN(c1nc(OC[C@@]23CCCN2C[C@H](F)C3)nc2c(F)c(-c3ccc(F)c4sc(N)c(C#N)c34)c(C(F)(F)F)cc12)[C@H]1CCS(=O)(=O)C1 (single isomer, unassigned) [Compound 220] | – | – | – | – | – | – | IC50 (GP2d cells (KRAS G12D)): > 1000 nM; IC50 [1, 5]: > 10000 nM; IC50 (SW620 cells (KRAS G12V); SW620 (KRAS G12V) cells): > 1000 nM; IC50 [2, 6]: > 10000 nM; IC50 [3, 7]: > 10000 nM; IC50 [4, 8]: > 10000 nM
4 | CCN(c1nc(OC[C@@]23CCCN2C[C@H](F)C3)nc2c(F)c(-c3ccc(F)c4sc(N)c(C#N)c34)c(C(F)(F)F)cc12)[C@H]1CCN(C(=O)N2CC3CC(C2)O3)C1 [Compound 651] | – | – | – | – | – | – | IC50 (GP2d cells (KRAS G12D); GP2d, class symbols): < 100 nM; IC50 [1, 9]: < 100 nM; IC50 (SW620 cells (KRAS G12V); [10]): < 100 nM; IC50 [2, 11]: < 100 nM; IC50 [3, 12]: < 100 nM; IC50 [4, 13]: < 100 nM
5 | CCC(=O)N1CC[C@H](N(CC)c2nc(OC[C@@]34CCCN3C[C@H](F)C4)nc3c(F)c(-c4ccc(F)c5sc(N)c(C#N)c45)c(C(F)(F)F)cc23)C1 [Compound 349] | < 100 | < 100 | < 100 | 100 to 1000 | 100 to 1000 | < 100 | –
6 | CC[C@@H](C)C(=O)N1CC[C@H](N(CC)c2nc(OC[C@@]34CCCN3C[C@H](F)C4)nc3c(F)c(-c4ccc(F)c5sc(N)c(C#N)c45)c(C(F)(F)F)cc23)C1 (atropisomer, axis not shown) [Compound 563] | < 100 | 100 to 1000 | < 100 | 100 to 1000 | 100 to 1000 | < 100 | –
7 | C[C@@]1(CO)CCN1c1nc(OC[C@@]23CCCN2C[C@H](F)C3)nc2c(F)c(-c3ccc(F)c4sc(N)c(C#N)c34)c(C(F)(F)F)cc12 [Compound 413] | > 1000 | > 10000 | > 1000 | > 10000 | > 10000 | > 10000 | –
8 | N#Cc1c(N)sc2c(F)ccc(-c3c(C(F)(F)F)cc4c(N5CC6CC(C5)O6)nc(OC[C@@]56CCCN5C[C@H](F)C6)nc4c3F)c12 (single isomer, unassigned) [Compound 276] | – | – | – | – | – | – | IC50 (GP2d cells (KRAS G12D)): > 1000 nM; IC50 [1, 5]: 1000 to 10000 nM; IC50 (SW620 cells (KRAS G12V); SW620 (KRAS G12V) cells): 100 to 1000 nM; IC50 [2, 6]: 1000 to 10000 nM; IC50 [3, 7]: > 10000 nM; IC50 [4, 8]: 1000 to 10000 nM
9 | CCN(c1nc(OC[C@@]23CCCN2C[C@H](F)C3)nc2c(F)c(-c3ccc(F)c4sc(N)c(C#N)c34)c(C(F)(F)F)cc12)[C@H]1CCN(C(=O)O[C@H]2CCOC2)[C@@H]1C (atropisomer, axis not shown) [Compound 810] | – | – | – | – | – | – | IC50 (GP2d cells (KRAS G12D); GP2d, class symbols): < 100 nM; IC50 [1, 9]: < 100 nM; IC50 (SW620 cells (KRAS G12V); [10]): < 100 nM; IC50 [2, 11]: < 100 nM; IC50 [3, 12]: < 100 nM; IC50 [4, 13]: < 100 nM
10 | C[C@H]1Cn2nnc(C#N)c2CN1c1nc(OC[C@@]23CCCN2C[C@H](F)C3)nc2c(F)c(-c3ccc(F)c4sc(N)c(C#N)c34)c(C(F)(F)F)cc12 (atropisomer, axis not shown) [Compound 625] | – | – | – | – | – | – | IC50 (GP2d cells (KRAS G12D); GP2d, class symbols): < 100 nM; IC50 [1, 9]: 1000 to 10000 nM; IC50 (SW620 cells (KRAS G12V); [10]): < 100 nM; IC50 [2, 11]: 1000 to 10000 nM; IC50 [3, 12]: 1000 to 10000 nM; IC50 [4, 13]: 100 to 1000 nM
11 | CN(C)C(=O)[C@H]1CC[C@@H](N(C)c2nc(OC[C@@]34CCCN3C[C@H](F)C4)nc3c(F)c(-c4ccc(F)c5sc(N)c(C#N)c45)c(C(F)(F)F)cc23)C1 [Compound 497] | < 100 | 1000 to 10000 | < 100 | 1000 to 10000 | 1000 to 10000 | 100 to 1000 | –
